Results from ChEMBL document CHEMBL1159225, “Oceanapamine, a sesquiterpene alkaloid from the Philippine sponge Oceanapia sp” (J Nat Prod, 1995).
Activity calls are given as the source filed them. The rule behind the calls is not given here.

Tests used:
Type in all cases: functional, organism-based
Bacillus subtilis = assay: Antimicrobial activity against Bacillus subtilis at 25 ug/disk by standard disk assay
Escherichia coli = assay: Antimicrobial activity against Escherichia coli at 25 ug/disk by standard disk assay
Staphylococcus aureus = assay: Antimicrobial activity against Staphylococcus aureus at 50 ug/disk by standard disk assay
Candida albicans = assay: Antifungal activity against Candida albicans at 50 ug/disk by standard disk assay
Pseudomonas aeruginosa = assay: Antimicrobial activity against Pseudomonas aeruginosa at 100 ug/disk by standard disk assay

SMILES	Activity (Bacillus subtilis)	Activity (Escherichia coli)	Activity (Staphylococcus aureus)	Activity (Candida albicans)	Activity (Pseudomonas aeruginosa)
C=C1CCCC(C)(C)[C@H]1CC/C(C)=C/Cc1ncn2c1CCNC2=O	inactive	inactive	inactive	inactive	inactive
C=C1CCCC(C)(C)[C@H]1CC/C(C)=C/Cc1nc[nH]c1CCN	Active	Active	Active	Active	Active
